Measurements from US20120029187A1, “HALOALKYLSULFONANILIDE DERIVATIVE” (Nissan Chemical Industries, Ltd., priority 2009, published 2012).

Legend:
Format in all cases: in vivo
[1] = tested on: barnyardgrass; experiment: Test Example 1: herbicidal effects in preemergence treatment under submerged conditions; conditions: dose 2.52 g/a
How it was run: (§1)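 Alluvial soil was flooded to 4 cm, sown with barnyardgrass, bulrush and ducksalad, and planted with 2.5-leaf rice seedlings. On the seeding day, water-diluted emulsifiable concentrates were applied to the water surface at set doses (g/a). After three weeks in a 25 to 30° C. greenhouse, mortality was scored 0–5.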

[2] = tested on: bulrush; experiment: as above; conditions: dose 2.52 g/a
How it was run: as §1

[3] = tested on: ducksalad; experiment: as above; conditions: dose 2.52 g/a
How it was run: as §1

[4] = tested on: transplanted rice; experiment: Test Example 1: preemergence treatment under submerged conditions, effect on crop; conditions: dose 2.52 g/a
How it was run: as §1

[5] = tested on: barnyardgrass; experiment: Test Example 2: herbicidal effects during the vegetation period under submerged conditions; conditions: treatment during the vegetation period under submerged conditions; dose 2.52 g/a
How it was run: (§2)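 Barnyardgrass, bulrush and ducksalad were co-sown in alluvial soil flooded to 4 cm and grown in a greenhouse at 25 to 30° C. At the 1- or 2-leaf stage, water-diluted emulsifiable concentrates went onto the water surface at set doses (g/a). Herbicidal effect was scored three weeks later on a graded scale.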

[6] = tested on: bulrush; experiment: as above; conditions: treatment during the vegetation period under submerged conditions; dose 2.52 g/a
How it was run: as §2

[7] = tested on: ducksalad; experiment: as above; conditions: treatment during the vegetation period under submerged conditions; dose 2.52 g/a
How it was run: as §2

[8] = tested on: Italian ryegrass; experiment: Test Example 3: herbicidal effects in soil treatment; conditions: dose 3.2 g/a
How it was run: (§3)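 Seeds were sown in sterilized diluvial soil and covered with about 1.5 cm of soil. Compounds, formulated as emulsifiable concentrates and diluted with water, were sprayed evenly over the soil surface at set doses in g/a. Herbicidal effect was scored on a rating scale three weeks later.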

[9] = tested on: barnyardgrass; experiment: as above; conditions: dose 3.2 g/a
How it was run: as §3

[10] = tested on: common chickweed; experiment: as above; conditions: dose 3.2 g/a
How it was run: as §3

[11] = tested on: common lambsquater; experiment: as above; conditions: dose 3.2 g/a
How it was run: as §3

[12] = tested on: common ragweed; experiment: as above; conditions: dose 3.2 g/a
How it was run: as §3

[13] = tested on: giant foxtail; experiment: as above; conditions: dose 3.2 g/a
How it was run: as §3

[14] = tested on: large crabgrass; experiment: as above; conditions: dose 3.2 g/a
How it was run: as §3

[15] = tested on: posumbu knotweed; experiment: as above; conditions: dose 3.2 g/a
How it was run: as §3

[16] = tested on: redroot pigweed; experiment: as above; conditions: dose 3.2 g/a
How it was run: as §3

[17] = tested on: velvetleaf; experiment: as above; conditions: dose 3.2 g/a
How it was run: as §3

[18] = tested on: water foxtail; experiment: as above; conditions: dose 3.2 g/a
How it was run: as §3

[19] = tested on: Italian ryegrass; experiment: Test Example 4: herbicidal effect in foliage treatment; conditions: dose 3.2 g/a
How it was run: (§4)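 A uniform foliar spray of emulsifiable concentrate, diluted with water to give the stated g/a dose, was applied to plants raised for 14 days from seed in sterilized diluvial soil at 25 to 30° C. Herbicidal effects were scored three weeks later.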

[20] = tested on: barnyardgrass; experiment: as above; conditions: dose 3.2 g/a
How it was run: as §4

[21] = tested on: beadstraw; experiment: as above; conditions: dose 3.2 g/a
How it was run: as §4

[22] = tested on: common chickweed; experiment: as above; conditions: dose 3.2 g/a
How it was run: as §4

[23] = tested on: common lambsquater; experiment: as above; conditions: dose 3.2 g/a
How it was run: as §4

[24] = tested on: common ragweed; experiment: as above; conditions: dose 3.2 g/a
How it was run: as §4

[25] = tested on: giant foxtail; experiment: as above; conditions: dose 3.2 g/a
How it was run: as §4

[26] = tested on: large crabgrass; experiment: as above; conditions: dose 3.2 g/a
How it was run: as §4

[27] = tested on: posumbu knotweed; experiment: as above; conditions: dose 3.2 g/a
How it was run: as §4

[28] = tested on: redroot pigweed; experiment: as above; conditions: dose 3.2 g/a
How it was run: as §4

[29] = tested on: velvetleaf; experiment: as above; conditions: dose 3.2 g/a
How it was run: as §4

[30] = tested on: water foxtail; experiment: as above; conditions: dose 3.2 g/a
How it was run: as §4

[31] = three weeks after the application

## CCOC(=O)N(c1ccccc1CN1COC2(CCCCC2)CC1=O)S(=O)(=O)C(F)(F)F [II-68]
[1]
  A: barnyardgrass, herbicidal effect (evaluation scale 0-5): 5 (mortality of 90% or above (nearly complete death))
[2]
  B: bulrush, herbicidal effect (evaluation scale 0-5): 5 (mortality of 90% or above (nearly complete death))
[3]
  C: ducksalad, herbicidal effect (evaluation scale 0-5): 5 (mortality of 90% or above (nearly complete death))
[4]
  a: transplanted rice, effect on crop (evaluation scale 0-5): 3 (mortality of at least 40% and less than 70%)
[5]
  A: barnyardgrass, herbicidal effect (evaluation scale 0-5): 5 (mortality of 90% or above (nearly complete death))
[6]
  B: bulrush, herbicidal effect (evaluation scale 0-5): 5 (mortality of 90% or above (nearly complete death))
[7]
  C: ducksalad, herbicidal effect (evaluation scale 0-5): 5 (mortality of 90% or above (nearly complete death))
[8]
  H: Italian ryegrass, herbicidal effect (evaluation scale 0-5): 5 (mortality of 90% or above (nearly complete death))
[9]
  A: barnyardgrass, herbicidal effect (evaluation scale 0-5): 5 (mortality of 90% or above (nearly complete death))
[10]
  N: common chickweed, herbicidal effect (evaluation scale 0-5): 4 (mortality of at least 70% and less than 90%)
[11]
  L: common lambsquater, herbicidal effect (evaluation scale 0-5): 4 (mortality of at least 70% and less than 90%)
[12]
  J: common ragweed, herbicidal effect (evaluation scale 0-5): 2 (mortality of at least 20% and less than 40%)
[13]
  E: giant foxtail, herbicidal effect (evaluation scale 0-5): 5 (mortality of 90% or above (nearly complete death))
[14]
  D: large crabgrass, herbicidal effect (evaluation scale 0-5): 5 (mortality of 90% or above (nearly complete death))
[15]
  M: posumbu knotweed, herbicidal effect (evaluation scale 0-5): 5 (mortality of 90% or above (nearly complete death))
[16]
  K: redroot pigweed, herbicidal effect (evaluation scale 0-5): 3 (mortality of at least 40% and less than 70%)
[17]
  I: velvetleaf, herbicidal effect (evaluation scale 0-5): 5 (mortality of 90% or above (nearly complete death))
[18]
  G: water foxtail, herbicidal effect (evaluation scale 0-5): 5 (mortality of 90% or above (nearly complete death))
[19]; three weeks after application
  H: Italian ryegrass, herbicidal effect: 1 (mortality of at least 5% and less than 20%)
[20]; three weeks after application
  A: barnyardgrass, herbicidal effect: 5 (mortality of 90% or above (nearly complete death))
[21]; three weeks after application
  O: beadstraw, herbicidal effect: 3 (mortality of at least 40% and less than 70%)
[22]; three weeks after application
  N: common chickweed, herbicidal effect: 4 (mortality of at least 70% and less than 90%)
[23]; three weeks after application
  L: common lambsquater, herbicidal effect: 4 (mortality of at least 70% and less than 90%)
[24]; three weeks after application
  J: common ragweed, herbicidal effect: 3 (mortality of at least 40% and less than 70%)
[25]; three weeks after application
  E: giant foxtail, herbicidal effect: 5 (mortality of 90% or above (nearly complete death))
[26]; three weeks after application
  D: large crabgrass, herbicidal effect: 4 (mortality of at least 70% and less than 90%)
[27]; three weeks after application
  M: posumbu knotweed, herbicidal effect: 2 (mortality of at least 20% and less than 40%)
[28]; three weeks after application
  K: redroot pigweed, herbicidal effect: 2 (mortality of at least 20% and less than 40%)
[29]; three weeks after application
  I: velvetleaf, herbicidal effect: 4 (mortality of at least 70% and less than 90%)
[30]; three weeks after application
  G: water foxtail, herbicidal effect: 3 (mortality of at least 40% and less than 70%)

## CCOC(=O)N(c1ccccc1CN1OCCOC1=O)S(=O)(=O)C(F)(F)F [III-2]
[1]
  A: barnyardgrass, herbicidal effect (evaluation scale 0-5): 4 (mortality of at least 70% and less than 90%)
[2]
  B: bulrush, herbicidal effect (evaluation scale 0-5): 5 (mortality of 90% or above (nearly complete death))
[3]
  C: ducksalad, herbicidal effect (evaluation scale 0-5): 5 (mortality of 90% or above (nearly complete death))
[4]
  a: transplanted rice, effect on crop (evaluation scale 0-5): 0 (mortality of less than 5% (almost ineffective))
[5]
  A: barnyardgrass, herbicidal effect (evaluation scale 0-5): 3 (mortality of at least 40% and less than 70%)
[6]
  B: bulrush, herbicidal effect (evaluation scale 0-5): 5 (mortality of 90% or above (nearly complete death))
[7]
  C: ducksalad, herbicidal effect (evaluation scale 0-5): 4 (mortality of at least 70% and less than 90%)
[8]
  herbicidal effect, H: Italian ryegrass: 3 (mortality of at least 40% and less than 70%)
[9]
  herbicidal effect, A: barnyardgrass: 4 (mortality of at least 70% and less than 90%)
[10]
  herbicidal effect, N: common chickweed: 3 (mortality of at least 40% and less than 70%)
[11]
  herbicidal effect, L: common lambsquater: 5 (mortality of 90% or above (nearly complete death))
[12]
  herbicidal effect, J: common ragweed: 0 (mortality of less than 5% (almost ineffective))
[13]
  herbicidal effect, E: giant foxtail: 0 (mortality of less than 5% (almost ineffective))
[14]
  herbicidal effect, D: large crabgrass: 0 (mortality of less than 5% (almost ineffective))
[15]
  herbicidal effect, M: posumbu knotweed: 4 (mortality of at least 70% and less than 90%)
[16]
  herbicidal effect, K: redroot pigweed: 0 (mortality of less than 5% (almost ineffective))
[17]
  herbicidal effect, I: velvetleaf: 5 (mortality of 90% or above (nearly complete death))
[18]
  herbicidal effect, G: water foxtail: 5 (mortality of 90% or above (nearly complete death))
[19]; [31]
  H: Italian ryegrass, herbicidal effect: 3 (mortality of at least 40% and less than 70%)
[20]; [31]
  A: barnyardgrass, herbicidal effect: 4 (mortality of at least 70% and less than 90%)
[21]; [31]
  O: beadstraw, herbicidal effect: 3 (mortality of at least 40% and less than 70%)
[22]; [31]
  N: common chickweed, herbicidal effect: 3 (mortality of at least 40% and less than 70%)
[23]; [31]
  L: common lambsquater, herbicidal effect: 3 (mortality of at least 40% and less than 70%)
[24]; [31]
  J: common ragweed, herbicidal effect: 4 (mortality of at least 70% and less than 90%)
[25]; [31]
  E: giant foxtail, herbicidal effect: 0 (mortality of less than 5% (almost ineffective))
[26]; [31]
  D: large crabgrass, herbicidal effect: 0 (mortality of less than 5% (almost ineffective))
[27]; [31]
  M: posumbu knotweed, herbicidal effect: 4 (mortality of at least 70% and less than 90%)
[28]; [31]
  K: redroot pigweed, herbicidal effect: 3 (mortality of at least 40% and less than 70%)
[29]; [31]
  I: velvetleaf, herbicidal effect: 4 (mortality of at least 70% and less than 90%)
[30]; [31]
  G: water foxtail, herbicidal effect: 5 (mortality of 90% or above (nearly complete death))

## CCOC(=O)N(c1ccccc1CN1OCC(C)OC1=O)S(=O)(=O)C(F)(F)F (stereo not drawn) [III-4]
[1]
  A: barnyardgrass, herbicidal effect (evaluation scale 0-5): 5 (mortality of 90% or above (nearly complete death))
[2]
  B: bulrush, herbicidal effect (evaluation scale 0-5): 5 (mortality of 90% or above (nearly complete death))
[3]
  C: ducksalad, herbicidal effect (evaluation scale 0-5): 5 (mortality of 90% or above (nearly complete death))
[4]
  a: transplanted rice, effect on crop (evaluation scale 0-5): 0 (mortality of less than 5% (almost ineffective))
[5]
  A: barnyardgrass, herbicidal effect (evaluation scale 0-5): 5 (mortality of 90% or above (nearly complete death))
[6]
  B: bulrush, herbicidal effect (evaluation scale 0-5): 5 (mortality of 90% or above (nearly complete death))
[7]
  C: ducksalad, herbicidal effect (evaluation scale 0-5): 5 (mortality of 90% or above (nearly complete death))
[8]
  herbicidal effect, H: Italian ryegrass: 5 (mortality of 90% or above (nearly complete death))
[9]
  herbicidal effect, A: barnyardgrass: 5 (mortality of 90% or above (nearly complete death))
[10]
  herbicidal effect, N: common chickweed: 4 (mortality of at least 70% and less than 90%)
[11]
  herbicidal effect, L: common lambsquater: 5 (mortality of 90% or above (nearly complete death))
[12]
  herbicidal effect, J: common ragweed: 3 (mortality of at least 40% and less than 70%)
[13]
  herbicidal effect, E: giant foxtail: 5 (mortality of 90% or above (nearly complete death))
[14]
  herbicidal effect, D: large crabgrass: 5 (mortality of 90% or above (nearly complete death))
[15]
  herbicidal effect, M: posumbu knotweed: 5 (mortality of 90% or above (nearly complete death))
[16]
  herbicidal effect, K: redroot pigweed: 3 (mortality of at least 40% and less than 70%)
[17]
  herbicidal effect, I: velvetleaf: 5 (mortality of 90% or above (nearly complete death))
[18]
  herbicidal effect, G: water foxtail: 5 (mortality of 90% or above (nearly complete death))
[19]; [31]
  H: Italian ryegrass, herbicidal effect: 1 (mortality of at least 5% and less than 20%)
[20]; [31]
  A: barnyardgrass, herbicidal effect: 5 (mortality of 90% or above (nearly complete death))
[21]; [31]
  O: beadstraw, herbicidal effect: 3 (mortality of at least 40% and less than 70%)
[22]; [31]
  N: common chickweed, herbicidal effect: 5 (mortality of 90% or above (nearly complete death))
[23]; [31]
  L: common lambsquater, herbicidal effect: 1 (mortality of at least 5% and less than 20%)
[24]; [31]
  J: common ragweed, herbicidal effect: 4 (mortality of at least 70% and less than 90%)
[25]; [31]
  E: giant foxtail, herbicidal effect: 4 (mortality of at least 70% and less than 90%)
[26]; [31]
  D: large crabgrass, herbicidal effect: 3 (mortality of at least 40% and less than 70%)
[27]; [31]
  M: posumbu knotweed, herbicidal effect: 3 (mortality of at least 40% and less than 70%)
[28]; [31]
  K: redroot pigweed, herbicidal effect: 0 (mortality of less than 5% (almost ineffective))
[29]; [31]
  I: velvetleaf, herbicidal effect: 3 (mortality of at least 40% and less than 70%)
[30]; [31]
  G: water foxtail, herbicidal effect: 5 (mortality of 90% or above (nearly complete death))
